In ChEMBL document CHEMBL1153951, “Partial regeneration of beta-cells in the islets of Langerhans by Nymphayol a sterol isolated from Nymphaea stellata (Willd.) flowers” (2009) one finds Activity data, which are given here for one compound.

Test [1] relates to Rattus norvegicus. Kind of test: Antihyperglycemic activity in STZ-diabetic rat assessed as potentiation of insulin secretion from existing beta cells at 50 mg/kg, po after 45 days. The format is functional, organism-based. Also on record: dose 50 mg/kg.
Test [2] concerns Rattus norvegicus. Kind of test: Antihyperglycemic activity in STZ-diabetic rat assessed as hyperplastic islet cells at 600 mg/kg, po after 45 days by histopathological study. The test is classed as functional, organism-based. More on the design: dose 600 mg/kg.
Test [3] concerns Rattus norvegicus. Kind of test: Antihyperglycemic activity in STZ-diabetic rat assessed as dilated islet cells at 600 ug/kg, po after 45 days by histopathological study. The format is functional, organism-based.
Test [4] deals with Rattus norvegicus. Kind of test: Antihyperglycemic activity in STZ-diabetic rat assessed as expansion of islet cells at 25 mg/kg, po after 45 days by histopathological study. The format is functional, organism-based. More on the design: dose 25 mg/kg.
Test [5] relates to Rattus norvegicus. Briefly: Antihyperglycemic activity in STZ-diabetic rat assessed as expansion of islet cells at 50 mg/kg, po after 45 days by histopathological study. More on the design: dose 50 mg/kg. The format is functional, organism-based.
Test [6] has as its system Rattus norvegicus. Briefly: Antihyperglycemic activity in STZ-diabetic rat assessed as dilated islet cells at 25 mg/kg, po after 45 days by histopathological study. The format is functional, organism-based. More on the design: dose 25 mg/kg.
The subject of test [7] is Rattus norvegicus. Briefly: Antihyperglycemic activity in po dosed STZ-diabetic rat assessed as lowering of fasting plasma glucose level after 45 days by colorimetry. The test is classed as functional.
In test [8] the test system is Rattus norvegicus. Kind of test: Antihyperglycemic activity in STZ-diabetic rat assessed as hyperplastic islet cells at 50 mg/kg, po after 45 days by histopathological study. The format is functional, organism-based. More on the design: dose 50 mg/kg.
Test [9] relates to Rattus norvegicus. Briefly: Antihyperglycemic activity in STZ-diabetic rat assessed as expansion of islet cells at 12.5 mg/kg, po after 45 days by histopathological study. The test is classed as functional, organism-based. Also on record: dose 12.5 mg/kg.
In test [10] the test system is Rattus norvegicus. Kind of test: Antihyperglycemic activity in STZ-diabetic rat assessed as improvement in beta cell granulation at 50 mg/kg, po after 45 days by histopathological study. Also on record: dose 50 mg/kg. The format is functional, organism-based.
The subject of test [11] is Rattus norvegicus. Briefly: Antihyperglycemic activity in STZ-diabetic rat assessed as dilated islet cells at 12.5 mg/kg, po after 45 days by histopathological study. The format is functional, organism-based. More on the design: dose 12.5 mg/kg.
The subject of test [12] is Rattus norvegicus. Kind of test: Antihyperglycemic activity in po dosed STZ-diabetic rat assessed as insulin containing beta-cells by immunohistochemical study. The format is functional, organism-based.

The source made the active and inactive calls. The rule behind the calls is not given here.

Consider `CCCC[C@@H](C)[C@H]1CC[C@H]2[C@@H]3CC=C4C[C@@H](O)CC[C@]4(C)[C@H]3CC[C@]12C` [NYMPHAYOL], for which the result in test [1], in test [9], in test [10], in [11] and in [12] was Active. Further, the outcome in test [2], in test [3], in test [4], in test [5], in [6] and in test [8] was inactive. Further, the Activity in [7] worked out at 78.05%.
